Patent US5008386A, “Methylated cyclodextrin type compounds and process for preparing same” (Chinoin Gyogyszer es Vegyeszeti Termekek Gyara R.T., priority 1987, dated 1991)
≈ marks a conversion by molar mass, not a printed value. Where “and” joins values, the source holds several entries; their conditions need not be identical. Identical values can stand only once. Like-named read-outs stand apart in the source and are kept apart here.

What was measured:
[1] = Solubility-increasing effect (UV spectrophotometry, 22 °C, 18 hours stirring)
Experimental: Therefore comparative examinations concerning the solubility-increasing effect were performed with model guest-molecules containing a basic group. (The measurements were carried out by UV spectrophotometry at 22° C. after stirring for 18 hours).

in vitro = type: cell-based, human; conditions: human, erythrocytes, pH 7.4
Experimental: (§1) Solutions containing the test substances in 10 mM concentration were prepared in a 10 mM phosphate buffer at pH 7.4. The commercially available α-, β- and γ-CD products manufactured by Chinoin Chemical and Pharmaceutical Works Ltd. (Budapest, Hungary) were used.
(§2) DIMEB and TRIMEB, i.e. heptakis(2,6-di-O-methyl)-β-CD and heptakis(2,3,6-tri-O-methyl)-β-CD, respectively were prepared by the partial or total methylation of β-CD as described previously.
(§3) Fresh human blood (taken from healthy donors being under no medicinal treatment) treated by citrate as anticoagulant was centrifuged at 2000-3000× g for 10 minutes, then the supernatant was decanted, the eryhtrocytes were suspended in 5 ml of 10 mM isotonic phosphate buffer each and again centrifuged at 2000-3000× g for 10 minutes. After repeating twice this operation, the resulting erythrocytes were suspended in isotonic phosphate buffer to obtain a haematocrite volume of about 10%. This suspension (which could be stored in a refrigerator at about 4° C. for at most 48 hours) was used in further experiments.
(§4) 0.4 ml of erythrocyte suspension was added to a test solution of 4 ml total volume containing the tested CD-s and derivatives in various concentrations, then the mixture was incubated at 37° C. for 30 minutes. The mixture of 4 ml isotonic phosphate buffer and 0.4 ml erythrocyte suspension was used as blank trial (which was treated similarly to the samples).
(§5) After 30 minutes, the suspensions being present in the centrifuge tubes were centrifuged at 250-500× g for 10 minutes. (It was observed that no transparent supernatant, useful for spectrophotometric determination was obtained when the centrifuging was carried out for a shorter time.) After 10 minutes, the supernatants were drained off and their extinction was photometrically determined at 543 nm against a blank solution. In order to give the percentage of haemolysis, the extinction measured after a complete haemolysis had to be determined. This value was obtained in such a way that 0.4 ml of erythrocyte suspension was added to 4 ml of distilled water, then incubation and centrifuging were carried out in the same manner as described for the samples. The extinction of the solution thus obtained gave the 100% value of the haemolysis; when relating the measured extinctions of the samples to the 100% value, the extent of the haemolysis was obtained as a relative percentage.

human erythrocytes [2] = assay: in vitro; type: cell-based
Experimental: as §1, §2, §3, §4, §5

human erythrocytes [3] = conditions: cited from earlier work
[4] = 2.5% SUMEB vs 2.5% DIMEB solution, * UV maximum shifted (Sensit base)
[5] = human, erythrocytes, 0.5 h, pH 7.4
[6] = 37° C., pH 7,4, 10 mmoles isotonic phosphate buffer

CC(Cc1ccccc1)NCCC(c1ccccc1)c1ccccc1 (racemic) [± Prenylamine base, Prenylamine]
SUMEB / DIMEB (ratio of solubilities) [1, 4]: 3.75
solubility at 18 h ([1]; 2.5% dimeb solution): 2000 µg/mL (≈ 6.07 mM)
solubility at 18 h ([1]; 2.5% sumeb solution): 7500 µg/mL (≈ 22.8 mM)
solubility at 18 h ([1]; water): 310 µg/mL (≈ 0.941 mM)

CC(NCCC(c1ccccc1)c1ccccc1)c1ccccc1 (racemic) [± Sensit base]
SUMEB / DIMEB (ratio of solubilities) [1]: 1.53
solubility at 18 h ([1]; 2.5% dimeb solution): 5500 µg/mL (≈ 17.4 mM)
solubility at 18 h ([1]; 2.5% sumeb solution): 8500 µg/mL (≈ 26.9 mM)
solubility at 18 h ([1]; water): 2100 µg/mL (≈ 6.66 mM)

C[C@@H]([C@H](O)c1ccccc1)N(C)C [- N-Methylephedrine base, N-Methylephedrine]
SUMEB / DIMEB (ratio of solubilities) [1, 4]: 1.2
solubility at 18 h ([1]; 2.5% dimeb solution): 18500 µg/mL (≈ 103 mM)
solubility at 18 h ([1]; 2.5% sumeb solution): 22000 µg/mL (≈ 123 mM)

CC(C)CCC[C@@H](C)[C@H]1CC[C@H]2[C@@H]3CC=C4C[C@@H](O)CC[C@]4(C)[C@H]3CC[C@]12C [Cholesterol]
SUMEB / DIMEB (ratio of solubilities) [1, 4]: 0.37
solubility at 18 h ([1]; 2.5% dimeb solution): 1710 µg/mL (≈ 4.42 mM)
solubility at 18 h ([1]; 2.5% sumeb solution): 640 µg/mL (≈ 1.66 mM)
solubility at 18 h ([1]; water): 100 µg/mL (≈ 0.259 mM)

COC[C@H]1O[C@@H]2O[C@H]3[C@H](O)[C@@H](OC)[C@@H](O[C@H]4[C@H](O)[C@@H](OC)[C@@H](O[C@H]5[C@H](O)[C@@H](OC)[C@@H](O[C@H]6[C@H](O)[C@@H](OC)[C@@H](O[C@H]7[C@H](O)[C@@H](OC)[C@@H](O[C@H]8[C@H](O)[C@@H](OC)[C@@H](O[C@H]1[C@H](O)[C@H]2OC)O[C@@H]8COC)O[C@@H]7COC)O[C@@H]6COC)O[C@@H]5COC)O[C@@H]4COC)O[C@@H]3COC [DIMEB, heptakis(2,6-di-O-methyl)-β-CD]
HC50 at 0.5 h (in vitro): 1 mM and 1440 µg/mL
MNTC at 0.5 h (in vitro): 220 µM and 300 µg/mL
concentration giving the same percentage of haemolysis, relative to β-CD (human erythrocytes [2]): one sixth

c1ccc(Nc2ccccc2)cc1 [Diphenylamine]
SUMEB / DIMEB (ratio of solubilities) [1, 4]: 0.72
solubility at 18 h ([1]; 2.5% dimeb solution): 520 µg/mL (≈ 3.07 mM)
solubility at 18 h ([1]; 2.5% sumeb solution): 410 µg/mL (≈ 2.42 mM)

COC[C@H]1O[C@@H]2O[C@H]3[C@H](OC)[C@@H](OC)[C@@H](O[C@H]4[C@H](OC)[C@@H](OC)[C@@H](O[C@H]5[C@H](OC)[C@@H](OC)[C@@H](O[C@H]6[C@H](OC)[C@@H](OC)[C@@H](O[C@H]7[C@H](OC)[C@@H](OC)[C@@H](O[C@H]8[C@H](OC)[C@@H](OC)[C@@H](O[C@H]1[C@H](OC)[C@H]2OC)O[C@@H]8COC)O[C@@H]7COC)O[C@@H]6COC)O[C@@H]5COC)O[C@@H]4COC)O[C@@H]3COC [TRIMEB, heptakis(2,3,6-tri-O-methyl)-β-CD]
HC50 at 0.5 h (in vitro): 4 mM and 5700 µg/mL
MNTC at 0.5 h (in vitro): 1.4 mM and 2000 µg/mL
haemolytic effect, in words (human erythrocytes [2]): also higher than that of the mother compound

OC[C@H]1O[C@@H]2O[C@H]3[C@H](O)[C@@H](O)[C@@H](O[C@H]4[C@H](O)[C@@H](O)[C@@H](O[C@H]5[C@H](O)[C@@H](O)[C@@H](O[C@H]6[C@H](O)[C@@H](O)[C@@H](O[C@H]7[C@H](O)[C@@H](O)[C@@H](O[C@H]1[C@H](O)[C@H]2O)O[C@@H]7CO)O[C@@H]6CO)O[C@@H]5CO)O[C@@H]4CO)O[C@@H]3CO [α-CD]
HC50 at 0.5 h (in vitro): 12 mM and 11700 µg/mL
MNTC at 0.5 h (in vitro): 6 mM and 5800 µg/mL
Haemolysis values, measured (human erythrocytes [2]; [5]): 4.97%
low concentration protecting human erythrocytes against heat-induced or osmotic haemolysis (human erythrocytes [3]): 5 mmol
concentration at (and above) which haemolysis is induced (human erythrocytes [3]; pH 7): 6 mmol

OC[C@H]1O[C@@H]2O[C@H]3[C@H](O)[C@@H](O)[C@@H](O[C@H]4[C@H](O)[C@@H](O)[C@@H](O[C@H]5[C@H](O)[C@@H](O)[C@@H](O[C@H]6[C@H](O)[C@@H](O)[C@@H](O[C@H]7[C@H](O)[C@@H](O)[C@@H](O[C@H]8[C@H](O)[C@@H](O)[C@@H](O[C@H]1[C@H](O)[C@H]2O)O[C@@H]8CO)O[C@@H]7CO)O[C@@H]6CO)O[C@@H]5CO)O[C@@H]4CO)O[C@@H]3CO [β-CD, β-cyclodextrin]
HC50 at 0.5 h (in vitro): 6 mM and 6800 µg/mL
MNTC at 0.5 h (in vitro): 1.6 mM and 1800 µg/mL
concentration at (and above) which haemolysis is induced (human erythrocytes [3]; [6]): 3 mmol

OC[C@H]1O[C@@H]2O[C@H]3[C@H](O)[C@@H](O)[C@@H](O[C@H]4[C@H](O)[C@@H](O)[C@@H](O[C@H]5[C@H](O)[C@@H](O)[C@@H](O[C@H]6[C@H](O)[C@@H](O)[C@@H](O[C@H]7[C@H](O)[C@@H](O)[C@@H](O[C@H]8[C@H](O)[C@@H](O)[C@@H](O[C@H]9[C@H](O)[C@@H](O)[C@@H](O[C@H]1[C@H](O)[C@H]2O)O[C@@H]9CO)O[C@@H]8CO)O[C@@H]7CO)O[C@@H]6CO)O[C@@H]5CO)O[C@@H]4CO)O[C@@H]3CO [γ-CD]
HC50 at 0.5 h (in vitro): 24 mM and 32000 µg/mL
MNTC at 0.5 h (in vitro): ≤ 9 mM and ≤ 11000 µg/mL
concentration at (and above) which haemolysis is induced (human erythrocytes [3]; [6]): 16 mmol
low concentration protecting human erythrocytes against heat-induced or osmotic haemolysis (human erythrocytes [3]): 10 mmol

trideca-O-methyl-monosuccinyl-β-cyclodextrin [SUMEB]
haemolytic effect, in words (human erythrocytes [2]): significantly lower in comparison to the haemolytic effect of the mother compound
concentration at which no haemolytic effect was observed (human erythrocytes [2]; [5]): 300 µg/mL
concentration with a haemolysis value of 50% (human erythrocytes [2]; [5]): 6500 µg/mL

trideca-O-methyl-monosuccinyl-β-cyclodextrin methyl ester [Succinyl-DIMEB methyl ester]
haemolytic effect, in words (human erythrocytes [2]): not significantly different from the haemolytic effect of the trideca-O-methyl-monosuccinyl-β-CD
